From US11104664B2, “4,5,6-trisubstituted indazole derivatives, and preparation method and pharmaceutical use thereof” (SHANGHAI HAIYAN PHARMACEUTICAL TECHNOLOGY CO., LTD., priority 2016, dated 2021) come the findings set out here.

Some results are limits rather than exact numbers.

Assay [1] has as its target Recombinant PRC2 (EZH2-Y641F) (Homo sapiens (Human), UniProt Q15910, Y641F). The assay can be described thus: In vitro methyltransferase activity assay (LANCE Ultra). Format: biochemical. As to conditions: for IC50: 2.5 μM SAM/250 nM H3(1-50)K27me1, 3 hours, room temperature. As for the experimental part: Recombinant PRC2 (EZH2-Y641F) was purchased from Active motif, S-adenosyl-methionine (SAM) and Poly-L-lysine (PLL) were purchased from Sigma-Aldrich, and H3(1-50)K27me1 peptide was purchased from Cisbio. LANCEUltrasystem (Perkinelmer) was used for detection system. In the enzyme activity test, compounds to be tested were diluted by 8 gradient points in a ratio of 1:3, and added into each well in a reaction plate, and 100 ng recombinase was added, followed by a buffer [20 mM Tris pH8.5, 2 mM MgCl2, 0.01% Tween-20, 1 mM TCEP] containing 2.5 μM SAM/250 nM H3 (1-50)K27me1 premixtures. Enzymatic reaction thus began at room temperature. After reacted for 3 hours, a detection solution premixed with PLL, detection antibody and Ulight was added, and reacted for 1 hour at room temperature. The fluorescence value was then read on a Tecan infinite pro. IC50 was calculated by fitting in a four-factor model in the XLfit software.
On the technique in general: TR-FRET usually uses a lanthanide donor and a delayed reading to cut background.

The next assay relates to Pfeiffer cells. The assay can be described thus: Cell proliferation assay (Cell counting kit-8, 6 days). Type of assay: cell-based. Conditions: Pfeiffer (CRL-2632), 6 days culture. As to the method: The used cell lines Pfeiffer (CRL-2632), suDHL-6 (CRL-2959) and suDHL-10 (CRL-2963) were obtained from American Type Culture Collection (ATCC). All cell lines were cultured in RPMI-1640 medium (Gibco) containing 10% fetal bovine serum (Gibco). The cultured cells were harvested by centrifugation and the cell density was determined using a CounterStar cell counter. Appropriate number of cells were plated in a 96-well culture plate and incubated overnight. Compounds to be tested were diluted by 8 gradient points in a ratio of 1:3 and added into corresponding wells. After continuing to culture for 6 days, the number of viable cells was measured with Cell counting kit-8, and the absorbance value was read on Tecan infinite pro. The IC50 was calculated by fitting in a four-parameter model in the XLfit software.

Recombinant PRC2 (EZH2-Y641F), sequence (Q15910 whole entry Y641F): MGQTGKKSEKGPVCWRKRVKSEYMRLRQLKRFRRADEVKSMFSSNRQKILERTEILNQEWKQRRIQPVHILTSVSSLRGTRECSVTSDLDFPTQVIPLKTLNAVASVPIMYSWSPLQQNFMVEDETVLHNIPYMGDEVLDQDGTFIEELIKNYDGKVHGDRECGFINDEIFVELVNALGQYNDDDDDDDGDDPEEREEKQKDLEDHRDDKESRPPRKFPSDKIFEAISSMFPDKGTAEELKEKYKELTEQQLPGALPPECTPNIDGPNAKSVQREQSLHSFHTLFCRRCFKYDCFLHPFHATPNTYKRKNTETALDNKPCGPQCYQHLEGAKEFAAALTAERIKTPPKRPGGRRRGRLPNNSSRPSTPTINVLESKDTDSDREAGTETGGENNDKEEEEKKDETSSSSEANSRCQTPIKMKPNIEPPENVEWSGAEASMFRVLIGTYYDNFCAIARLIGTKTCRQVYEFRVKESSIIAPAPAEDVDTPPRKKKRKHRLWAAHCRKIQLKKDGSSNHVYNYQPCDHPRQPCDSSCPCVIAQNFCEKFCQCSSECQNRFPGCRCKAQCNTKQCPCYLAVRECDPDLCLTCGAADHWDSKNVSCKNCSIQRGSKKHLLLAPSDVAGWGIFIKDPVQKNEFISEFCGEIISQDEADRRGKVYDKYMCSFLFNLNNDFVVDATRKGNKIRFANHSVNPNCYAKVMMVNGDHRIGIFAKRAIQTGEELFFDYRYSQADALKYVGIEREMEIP
Recombinant PRC2 (EZH2-Y641F), sequence (O75530 whole entry partner): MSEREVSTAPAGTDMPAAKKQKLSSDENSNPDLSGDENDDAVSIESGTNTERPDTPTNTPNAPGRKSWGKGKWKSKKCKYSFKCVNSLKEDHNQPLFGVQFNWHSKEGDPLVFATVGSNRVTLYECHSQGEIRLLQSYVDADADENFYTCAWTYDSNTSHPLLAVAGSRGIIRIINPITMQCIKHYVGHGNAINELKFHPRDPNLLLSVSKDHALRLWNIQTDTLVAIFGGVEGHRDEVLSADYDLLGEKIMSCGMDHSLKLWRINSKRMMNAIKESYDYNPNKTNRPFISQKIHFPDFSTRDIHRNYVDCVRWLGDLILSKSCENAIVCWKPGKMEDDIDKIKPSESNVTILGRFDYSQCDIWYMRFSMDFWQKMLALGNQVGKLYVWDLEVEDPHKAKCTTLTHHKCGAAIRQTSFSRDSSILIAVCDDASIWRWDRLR
Recombinant PRC2 (EZH2-Y641F), sequence (Q15022 whole entry partner): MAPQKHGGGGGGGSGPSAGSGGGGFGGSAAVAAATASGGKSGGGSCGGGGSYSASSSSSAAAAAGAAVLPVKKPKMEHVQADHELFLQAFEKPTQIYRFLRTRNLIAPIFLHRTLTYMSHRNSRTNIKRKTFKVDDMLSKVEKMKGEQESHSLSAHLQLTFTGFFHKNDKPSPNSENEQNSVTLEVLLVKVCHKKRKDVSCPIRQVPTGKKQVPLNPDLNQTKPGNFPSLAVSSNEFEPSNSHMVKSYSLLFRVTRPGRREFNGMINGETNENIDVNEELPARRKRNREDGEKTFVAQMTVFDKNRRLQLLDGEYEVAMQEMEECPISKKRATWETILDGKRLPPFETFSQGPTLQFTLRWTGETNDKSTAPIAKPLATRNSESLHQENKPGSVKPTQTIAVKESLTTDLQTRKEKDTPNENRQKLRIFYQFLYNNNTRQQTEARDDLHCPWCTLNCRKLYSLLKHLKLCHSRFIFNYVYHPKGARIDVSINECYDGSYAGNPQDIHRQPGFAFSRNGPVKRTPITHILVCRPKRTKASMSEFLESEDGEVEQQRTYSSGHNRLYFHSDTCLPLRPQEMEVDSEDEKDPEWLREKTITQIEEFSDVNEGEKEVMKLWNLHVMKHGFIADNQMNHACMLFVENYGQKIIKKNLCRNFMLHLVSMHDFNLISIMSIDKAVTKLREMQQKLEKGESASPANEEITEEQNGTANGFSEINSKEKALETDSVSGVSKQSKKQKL
Recombinant PRC2 (EZH2-Y641F), sequence (Q09028 whole entry partner): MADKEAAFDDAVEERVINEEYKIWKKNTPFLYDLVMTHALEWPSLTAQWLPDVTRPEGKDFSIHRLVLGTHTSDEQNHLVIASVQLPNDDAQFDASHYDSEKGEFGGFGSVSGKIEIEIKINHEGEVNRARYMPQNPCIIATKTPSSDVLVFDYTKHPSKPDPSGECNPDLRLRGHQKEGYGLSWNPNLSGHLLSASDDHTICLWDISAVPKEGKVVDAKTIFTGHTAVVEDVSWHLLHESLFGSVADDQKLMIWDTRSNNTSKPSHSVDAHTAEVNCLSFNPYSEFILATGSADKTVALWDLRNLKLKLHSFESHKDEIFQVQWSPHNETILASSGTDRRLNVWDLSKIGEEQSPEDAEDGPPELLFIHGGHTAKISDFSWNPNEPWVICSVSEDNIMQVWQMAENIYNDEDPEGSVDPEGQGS
Recombinant PRC2 (EZH2-Y641F), sequence (Q6ZN18 whole entry partner): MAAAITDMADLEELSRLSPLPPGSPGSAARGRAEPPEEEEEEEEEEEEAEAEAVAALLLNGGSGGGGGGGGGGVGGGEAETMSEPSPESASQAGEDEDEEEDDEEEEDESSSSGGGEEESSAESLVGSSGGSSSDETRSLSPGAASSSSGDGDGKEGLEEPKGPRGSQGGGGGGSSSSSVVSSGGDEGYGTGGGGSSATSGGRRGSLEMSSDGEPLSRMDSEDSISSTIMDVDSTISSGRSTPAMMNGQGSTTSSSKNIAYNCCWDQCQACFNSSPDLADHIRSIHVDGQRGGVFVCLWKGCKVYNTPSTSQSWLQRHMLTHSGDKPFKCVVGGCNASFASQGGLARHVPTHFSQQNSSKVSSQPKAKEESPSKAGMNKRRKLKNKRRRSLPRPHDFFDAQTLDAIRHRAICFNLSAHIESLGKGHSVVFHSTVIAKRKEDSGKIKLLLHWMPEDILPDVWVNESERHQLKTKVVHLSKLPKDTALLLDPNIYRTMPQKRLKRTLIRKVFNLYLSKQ

The term IC50 denotes the midpoint of a concentration-inhibition curve. As to `CCN(c1c(C)c(C(=O)NCc2c(C)cc(C)[nH]c2=O)cc2c1cnn2C)C1CCC(N2CCCCC2)CC1` (stereo not drawn) [P-32], the IC50 in assay [1] came out at 12 nM; in the assay on Pfeiffer cells (Homo sapiens, 144 h) it was 59 nM.

For the compound `CCN(c1c(C)c(C(=O)NCc2c(C)cc(C)[nH]c2=O)cc2c1cnn2C)C1CCC(N(C)CC(F)(F)F)CC1` (stereo not drawn) [P-44, N-((4,6-dimethyl-2-oxo-1,2-dihydropyridin-3-yl)methyl)-4-(ethyl(4-(methyl(2,2,2-trifluoroethyl)amino)cyclohexyl)amino)-1,5-dimethyl-1H-indazole-6-carboxamide], the IC50 is 60 nM in assay [1] and 300 nM with Pfeiffer cells (Homo sapiens, 144 h).

With `CCc1c(C(=O)NCc2c(C)cc(C)[nH]c2=O)cc2c(cnn2C)c1N(CC)C1CCC(N(C)CCOC)CC1` [P-20, N-((4,6-dimethyl-2-oxo-1,2-dihydropyridin-3-yl)methyl)-5-ethyl-4-(ethyl((1S, 4S)-4-((2-methoxyethyl)(methyl)amino)cyclohexyl)amino)-1-methyl-1H-indazole-6-carboxamide], the half-inhibitory concentration (IC50) in assay [1] came out at 18 nM; in the assay with Pfeiffer cells, 31 nM.

Turning to `CCN(c1c(C)c(C(=O)NCc2c(C)cc(C)[nH]c2=O)cc2c1cnn2C)C1CCC(N2CC(F)(F)C2)CC1` (stereo not drawn) [P-31], the concentration for half-maximal inhibition (IC50) in assay [1] was determined as 15 nM; in the assay on Pfeiffer cells (Homo sapiens, 144 h), 130 nM.

On to `CCc1c(C(=O)NCc2c(C)cc(C)[nH]c2=O)cc2c(cnn2C)c1N(CC)C1CCC(N2CC(OCC(F)(F)F)C2)CC1` (stereo not drawn) [P-36], for which the half-maximal inhibitory concentration (IC50) in assay [1] is 13 nM; in the assay on Pfeiffer cells (Homo sapiens, 144 h), 3 nM.

For `CCN(c1c(C)c(C(=O)NCc2c(C)cc(C)[nH]c2=O)cc2c1cnn2C)C1CCC(CN(C)C)CC1` (stereo not drawn) [P-26], the IC50 in assay [1] is 8 nM; with Pfeiffer cells (Homo sapiens, 144 h), 48 nM.

In the case of `CCc1c(C(=O)NCc2c(C)cc(C)[nH]c2=O)cc2c(cnn2C)c1N(CC)C1CCC(N(C)C)CC1` (stereo not drawn) [P-23], the half-maximal inhibitory concentration (IC50) in assay [1] is 5 nM; in the assay with Pfeiffer cells (Homo sapiens, 144 h), 25 nM.

As to `CCN(c1c(C)c(C(=O)NCc2c(C)cc(C)[nH]c2=O)cc2c1cnn2C)C1CCC(N(C)CCOC)CC1` (stereo not drawn) [P-9, N-((4,6-dimethyl-2-oxo-1,2-dihydropyridin-3-yl)methyl)-4-(ethyl (4-((2-methoxyethyl)(methyl)amino)cyclohexyl)amino)-1,5-dimethyl-1H-indazole-6-carboxamide], the IC50 in assay [1] is 9 nM; in the assay with Pfeiffer cells (Homo sapiens, 144 h) it was 32 nM.

Take `CCc1c(C(=O)NCc2c(C)cc(C)[nH]c2=O)cc2c(cnn2C)c1N(CC)C1CCC(N2CCN(C)CC2)CC1` (stereo not drawn) [P-30]: the IC50 turned out to be 46 nM in assay [1] and 201 nM in the assay with Pfeiffer cells (Homo sapiens, 144 h).

Turning to `CCc1c(C(=O)NCc2c(OC)cc(C)[nH]c2=O)cc2c(cnn2C)c1N(C)[C@H]1CC[C@H](N(C)CCOC)CC1` [P-21, 5-ethyl-4-(methyl((1R, 4R)-4-((2-methoxyethyl) (methyl)amino)cyclohexyl)amino)-N-((4-methoxy-6-methyl-2-oxo-1,2-dihydropyridin-3-yl)methyl)-1-methyl-1H-indazole-6-carboxamide], the IC50 in assay [1] amounted to 14 nM; with Pfeiffer cells, 32 nM.

`CCN(c1c(C)c(C(=O)NCc2c(C)cc(C)[nH]c2=O)cc2c1c(F)nn2C)C1CCOCC1` [P-41]: the IC50 worked out at 425 nM in assay [1] and 2000 nM in the assay on Pfeiffer cells (Homo sapiens, 144 h). Also, the “inhibitory activity against the enzyme (in words)” value in assay [1] (SAR comment on Table 1, reduced relative to comparator compounds (P-7, P-13/14)) is “greatly reduced”.

For the compound `CCN(c1c(C#N)c(C(=O)NCc2c(C)cc(C)[nH]c2=O)cc2c1cnn2C)C1CCOCC1` [P-27], the IC50 is 1750 nM in assay [1] and more than 10000 nM with Pfeiffer cells (Homo sapiens, 144 h).

With `CCc1c(C(=O)NCc2c(OC)cc(C)[nH]c2=O)cc2c(cnn2C)c1N(CC)C1CCOCC1` [P-16, 5-ethyl-4-(ethyl(tetrahydro-2H-pyran-4-yl)amino)-N-((4-methoxy-6-methyl-2-oxo-1,2-dihydropyridin-3-yl)methyl)-1-methyl-1H-indazole-6-carboxamide], the IC50 in assay [1] was determined as 8 nM; with Pfeiffer cells (Homo sapiens, 144 h), 7 nM.
